Measurements reported in PMC12067128, “Macrocyclization: Enhancing Drug-like Properties of Discoidin Domain Receptor Kinase Inhibitors” (ACS Medicinal Chemistry Letters, 2025).
In brackets after ≈: the same amount, converted by molar mass. Like-named read-outs stand apart in the source and are kept apart here.

Legend:
[1] = EPSA polarity descriptor; assay type: physicochemical; conditions: almost fully nonpolar environment; polarity in nonpolar environment
Experimental: Polarity is quantified by two descriptors: EPSA and Δlog kw ^IAM. The first is measured in an almost fully nonpolar environment, and the second describes polarity in an aqueous medium. […] This is also in line with the higher solubility of KIMCs over 1.

[2] = BRlogD chromatographic lipophilicity; assay type: physicochemical; conditions: XBridge Shield RP18, pH 7.0, 60% acetonitrile
Experimental: The original method was described in a previous paper.e Briefly, a HPLC Thermo Fisher Scientific Dionex Ultimate 3000 instrument equipped with a Low-Pressure Mixing Gradient Pump LPG-3400 SD, ACC-3000 autosampler with termostatable column compartment, a DAD-3000 RS Detector and Chromeleon Data System Version 7.2.10 was used. Deionized water and HPLC grade acetonitrile were used throughout. The mobile phases consisted of 20 mM ammonium acetate at pH 7.0 and acetonitrile 60% v/v. Samples were dissolved in a 1:1 mixture of buffer/acetonitrile in the concentration range of 50–100 ug/mL. A 10uL volume of each solution was injected at 30°C and flow rate was 1 mL/min. The dead time, t0, was determined by monitoring the baseline disturbance.
retention time (tR) was measured on a XBridgeTM Shield RP18 (Waters, 5cm x 4.6 mm, 5 µm particle size, 130Å pore size). Isocratic log k’ (capacity factor k’ = (tR - t0)/t0) values were measured. The relationship between log D and log k’60 has been determined previously and is reported below (Eq.
We termed this log D as BRlogD.

[3] = ChromLogD chromatographic lipophilicity; assay type: physicochemical; conditions: C18 column, pH 7.4
Experimental: The chromatographic method was based on the differential retention times of test compounds on a C18 column (Luna C18(2), 30 x 2mm, […], 100 Å) under controlled liquid chromatography conditions, comparing retention times with those of standards (Benzyl Alcohol, p-Nitrophenol, Bromobenzene, Anthracene) with known log D values. Stock solutions (10 mM in DMSO) of test compounds were diluted to a final concentration of 1 mM. The mobile phases consisted of A (20mM Ammonium Acetate buffered to pH 7.4 with ammonia hydroxide) and B (ACN). The LC gradient profile was the following: a linear increase to 90% B during 0.0 to 1.3 min, hold at 90 % B during 1.3 to 1.53 min then back to 0.0% B from 1.53 to 1.60 min, hold at 0% B until the end of the run (2.00 min). 1 μL of the sample volume was injected, using a flow rate of 0.5 mL/min and a column temperature of 40°C. All compounds were detected by UPLC/MS analysis using a a Waters ACQUITY UPLC equipped with a Photo Diode Array (PDA) detector coupled with a Waters ACQUITY QDa single quadrupole mass spectrometer with an Electrospray ionization (ESI) source.
The retention times were obtained by processing data in Waters Openlynx. The standards are then plotted in excel and the best fit line was used as the basis for calculating the unknown LogD values from the retention times of the peaks obtained.

[4] = Microsomes stability (clearance in human microsomes); assay type: in vitro ADME; conditions: pH 7.4, 0.8 mg protein/mL, 1 mM NADPH, 37 °C, read-out: CLint h mic (clearance in human microsomes)
Experimental: values in Caco-2 assay were: <10 nm/s = low level; 10-50 nm/s = medium level; >50 nm/s = high […]
Test compounds were incubated, in duplicate, at the concentration of 1 μM with liver microsomes (0.8 mg protein/mL) in Dulbecco’s buffer (pH 7.4) at 37 °C in the presence of 1 mM NADPH. At different time points (0, 5, 10, 20, 30, and 60 min), 50 μL aliquots of the incubates were taken, added with 80 μL of ice-cold acetonitrile, and 20 μL of 1 μM warfarin in acetonitrile (injection check) to stop the reaction, and samples were centrifuged. The supernatants were analyzed by LC−MS/MS for unchanged compounds. Test compounds were incubated with liver microsomes in Dulbecco’s buffer in the absence of NADPH for 0 and 60 min, as control. Midazolam at the concentration of 1 μM, was incubated with microsomes as positive control for phase I activity of microsomes. Control samples were processed as test compound samples.

[5] = Kinetic solubility; assay type: physicochemical; conditions: for solubility kinetic at 2 h: phosphate buffered saline, PBS pH 7.4, 2% DMSO, 2 h room temperature, assay range 5-200 µM, read-out: KS (kinetic solubility)
Experimental: Using a stock solution of test compound in 100% DMSO, duplicate dilutions were prepared at a nominal concentration of 200 µM in 0.1 M phosphate buffered saline (PBS) at pH 7.4, with a 2% final DMSO content. Test compound calibration standards were prepared at 200 µM and 10 µM in 100%
DMSO. The PBS and DMSO dilutions were equilibrated on a shaking platform at room temperature for two hours prior to filtration using a Multiscreen HTS solubility filter plate (Millipore). Filtrates were analysed by LC-UV-MS and the concentration of compound in PBS filtrate determined by comparing the UV absorbance peak with that of the two DMSO calibration standards. Mass spectrometry will be used to confirm the presence of the expected molecular ion in the UV peak measured. The effective range of the assay is 5 – 200 µM. […]

[6] = Chamelogk chameleonicity descriptor; assay type: physicochemical; conditions: >0.6 = chameleons, <0.6 = non-chameleons
Experimental: Finally, chameleonicity was measured with the recently described Chamelogk method (Table ), where 0.6 is the threshold value to distinguish chameleons from non-chameleons.

[7] = target: T1, Pgp (Homo sapiens, UniProt P08183); experiment: Pgp substrate assessment from Caco-2 permeability with/without Pgp inhibitor; assay type: in vitro ADME
T1 construct: host or cells: Caco-2 cells
T1 sequence (P08183 whole entry): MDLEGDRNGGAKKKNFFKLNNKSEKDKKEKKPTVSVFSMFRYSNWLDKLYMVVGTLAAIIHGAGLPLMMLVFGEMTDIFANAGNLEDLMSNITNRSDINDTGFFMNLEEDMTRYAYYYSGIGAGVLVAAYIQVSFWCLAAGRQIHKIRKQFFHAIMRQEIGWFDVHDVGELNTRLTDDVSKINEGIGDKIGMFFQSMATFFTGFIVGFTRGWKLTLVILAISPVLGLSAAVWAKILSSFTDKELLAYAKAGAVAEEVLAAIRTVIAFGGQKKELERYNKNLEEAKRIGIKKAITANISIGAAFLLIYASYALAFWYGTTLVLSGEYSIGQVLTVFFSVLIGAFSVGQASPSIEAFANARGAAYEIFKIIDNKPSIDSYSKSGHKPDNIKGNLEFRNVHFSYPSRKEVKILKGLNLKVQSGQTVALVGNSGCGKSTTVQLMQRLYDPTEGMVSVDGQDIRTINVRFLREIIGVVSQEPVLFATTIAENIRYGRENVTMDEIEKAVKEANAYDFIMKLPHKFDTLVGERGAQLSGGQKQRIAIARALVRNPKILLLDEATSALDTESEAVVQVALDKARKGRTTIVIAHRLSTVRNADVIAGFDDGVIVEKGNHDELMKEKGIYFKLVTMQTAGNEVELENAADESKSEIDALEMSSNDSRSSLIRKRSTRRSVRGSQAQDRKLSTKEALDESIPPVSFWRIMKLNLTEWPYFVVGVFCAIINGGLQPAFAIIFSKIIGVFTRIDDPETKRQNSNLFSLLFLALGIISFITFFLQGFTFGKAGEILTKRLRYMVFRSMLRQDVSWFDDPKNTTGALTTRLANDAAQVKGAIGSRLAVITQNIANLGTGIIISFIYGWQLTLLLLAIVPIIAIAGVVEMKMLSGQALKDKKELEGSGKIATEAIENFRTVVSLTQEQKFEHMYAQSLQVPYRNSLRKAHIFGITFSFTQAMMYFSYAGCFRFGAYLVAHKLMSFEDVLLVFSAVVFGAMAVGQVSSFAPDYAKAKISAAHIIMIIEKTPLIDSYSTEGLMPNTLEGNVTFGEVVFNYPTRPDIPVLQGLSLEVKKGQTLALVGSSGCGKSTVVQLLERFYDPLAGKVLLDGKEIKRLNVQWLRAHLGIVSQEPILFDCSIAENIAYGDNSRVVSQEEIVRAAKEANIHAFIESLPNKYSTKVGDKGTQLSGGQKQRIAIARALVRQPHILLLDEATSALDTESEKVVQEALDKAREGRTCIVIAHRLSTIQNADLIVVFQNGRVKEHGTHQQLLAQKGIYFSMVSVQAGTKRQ
Experimental: Lucifer Yellow (LY) was added to the apical buffer in all wells to assess viability of the cell layer. As LY cannot freely permeate lipophilic barriers, a high degree of LY transport indicates poor integrity of the cell layer and wells with a LY Papp > 10 x 10-6 cm/s were rejected. Compound recovery from the wells was determined from MS responses (normalised to internal standard) in donor and acceptor chambers at the end of incubation compared to response in the donor chamber pre- […]
which may reduce the reliability of a result.
Caco-2 membrane permeability assay
Caco-2 cells (ECACC) were cultured in DMEM, 10% FBS, 1% NEAA, Hepes buffer 10 mM and in 50 U/mL penicillin and […] streptomycin. For transport studies, 200,000 cells/well were seeded on Millicell 24-well cell culture plates. After 24 hours of incubation at 37 °C and 5% CO2, the medium was changed with Enterocyte Differentiation Medium (Becton Dickinson), which allows Caco-2 cells to establish within three days a differentiated enterocyte monolayer. The permeability of the compounds across the cells’ monolayer was determined by measuring their transport in both directions: apical to basolateral (A → B) and basolateral to apical (B → A). For A → B directional transport, the donor working solution with test article 10 m M) was added to the apical (A) compartment and HBSS (pH 7.4) was added to the basolateral (B). […] The Papp expressed as nm/sec was calculated as follows: Papp (nm/sec) = (Vr/C0) x (1/A) x (Cr(t)/T) x 1000 000. […]
Vr is the volume of the solution in the receiving compartment (mL); C0 is initial test compound concentration in the donor compartment (expressed as area ratio); A is the membrane surface area (cm2); Cr (t) = measured concentration of the receiver well at time T120 (expressed as area ratio) and T is time of incubation (sec). Efflux ratio was also measured to understand if the compounds undergo active efflux: Efflux ratio = Papp [B > A] / Papp [A > B]. […]

[8] = system: MDCK-WT wild-type cells; experiment: MDCK-WT permeability assay

**Q.** With Cn1cc2c3nc(ncc31)Nc1cnn(c1)CCCNCCOc1ccc-2cc1 [Compound 5a] as the compound, how does the EPSA [1] read?
**A.** Its EPSA is 125 A^2.

**Q.** What about the BRlogD [2] of the same compound?
**A.** Its BRlogD is 0.64.

**Q.** What about the chromatographic logD [3] of the same compound?
**A.** Its chromatographic logD is 1.75.

**Q.** What about the microsomal CLint at 1 h, 1 µM ([4]; microsomes) of the same compound?
**A.** The microsomal CLint at 1 h, 1 µM was 80.5 ± 2.7 µL/min/mg.

**Q.** What about the “kinetic solubility (in words)” value [5] of the same compound?
**A.** Its value is “less soluble”.

**Q.** What about the solubility kinetic at 2 h [5] of the same compound?
**A.** Its solubility kinetic at 2 h is 20 ± 3 µM (≈ 7.79 µg/mL).

**Q.** And the Chamelogk [6]?
**A.** Its Chamelogk is 1.76.

**Q.** Which results are given for Cn1cc2c3nc(ncc31)Nc1cnn(c1)CCCNC(=O)COc1ccc-2cc1 [Compound 5b]?
**A.** EPSA [1]: 106 A^2; Pgp substrate ([7]; Caco-2 model): YES; BRlogD [2]: 0.53; chromatographic logD [3]: 1.52; microsomal CLint at 1 h, 1 µM ([4]; liver microsomes): 88.5 ± 9.6 µL/min/mg; kinetic solubility (in words) [5]: less soluble; solubility kinetic at 2 h [5]: 16 ± 1 µM (≈ 6.46 µg/mL); permeability in the MDCK model (in words) [8]: highly permeable; Chamelogk [6]: 0.61

**Q.** For c1cc2nc(n1)Nc1cnn(c1)CCCNCCOc1ccc(cc1)N2 [Compound 6a], which EPSA [1] is on record?
**A.** Its EPSA is 127 A^2.

**Q.** What about the Pgp substrate ([7]; Caco-2) of the same compound?
**A.** Its Pgp substrate is “YES”.

**Q.** What about the BRlogD [2] of the same compound?
**A.** The BRlogD was -0.29.

**Q.** And the chromatographic logD [3]?
**A.** Its chromatographic logD is 1.15.

**Q.** And the microsomal CLint at 1 h, 1 µM ([4]; microsomes)?
**A.** Its microsomal CLint at 1 h, 1 µM is 22.1 ± 1.4 µL/min/mg.

**Q.** What about the “kinetic solubility (in words)” value [5] of the same compound?
**A.** Its value is “highly soluble”.

**Q.** What about the solubility kinetic at 2 h [5] of the same compound?
**A.** The solubility kinetic at 2 h was 188 ± 18 µM (≈ 66.1 µg/mL).

**Q.** What about the Chamelogk [6] of the same compound?
**A.** Its Chamelogk is 1.63.

**Q.** Which EPSA [1] does the source give for O=C1COc2ccc(cc2)Nc2ccnc(n2)Nc2cnn(c2)CCCN1 [Compound 6b] here?
**A.** Its EPSA is 108 A^2.

**Q.** What about the Pgp substrate ([7]; Caco-2 model) of the same compound?
**A.** The Pgp substrate was “YES”.

**Q.** What about the BRlogD [2] of the same compound?
**A.** Its BRlogD is -0.03.

**Q.** And the chromatographic logD [3]?
**A.** Its chromatographic logD is 1.17.

**Q.** What about the microsomal CLint at 1 h, 1 µM ([4]; liver microsomes) of the same compound?
**A.** Its microsomal CLint at 1 h, 1 µM is 12.1 ± 0.1 µL/min/mg.

**Q.** And the “kinetic solubility (in words)” value [5]?
**A.** Its value is “highly soluble”.

**Q.** What about the solubility kinetic at 2 h [5] of the same compound?
**A.** The solubility kinetic at 2 h was 198 ± 3 µM (≈ 72.3 µg/mL).

**Q.** What about the “permeability in the MDCK model (in words)” value [8] of the same compound?
**A.** The value was “moderately permeable”.

**Q.** And the Chamelogk [6]?
**A.** The Chamelogk was 1.95.
